{
  "source": "PubChem BioAssay AID1963825",
  "about": "(Molecular Pharmacology Branch, DTP, NCI, 2024)",
  "test": "Anticancer human tumor 997537-175-T-J1-PDC patient-derived colon adenocarcinoma cell line growth inhibition [POLQ]",
  "conditions": "997537-175-T-J1-PDC complex spheroid viability, combination with POLQ inhibitors; for pIC50: curve of first compound; for viability, T/C: stronger effect = lower value",
  "procedure,_shortened": "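Patient-derived tumour cells were co-cultured with HUVEC and mesenchymal stem cells as multicellular spheroids at 37 °C. They were treated with POLQ inhibitors (novobiocin, ART-558, RP6685) alone or combined with other agents. Top concentrations were at or near clinical Cmax (otherwise 10 microM; SN-38 at 1 microM), decreasing in half-log steps.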",
  "key": {"[1]": {"conditions": "second compound 0.0316 µM, first compound 0.0316 µM"}, "[2]": {"conditions": "second compound 0.0316 µM, first compound 0.1 µM"}, "[3]": {"conditions": "second compound 0.1 µM, first compound 0.0316 µM"}, "[4]": {"conditions": "second compound 0.1 µM, first compound 0.1 µM"}, "[5]": {"conditions": "second compound 0.316 µM, first compound 0.0316 µM"}, "[6]": {"conditions": "second compound 0.316 µM, first compound 0.1 µM"}, "[7]": {"conditions": "second compound 1 µM, first compound 0.0316 µM"}, "[8]": {"conditions": "second compound 1 µM, first compound 0.1 µM"}, "[9]": {"conditions": "second compound 3.16 µM, first compound 0.0316 µM"}, "[10]": {"conditions": "second compound 3.16 µM, first compound 0.1 µM"}, "[11]": {"conditions": "second compound 10 µM, first compound 0.0316 µM"}, "[12]": {"conditions": "second compound 10 µM, first compound 0.1 µM"}},
  "note": "pIC50: −log10 of the molar value.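 Note: luminescence signal used as a surrogate for viable cells; spheroids exposed to drugs for seven days before readout.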",
  "data": [
    {"smiles": "CC[C@@]1(O)C(=O)OCc2c1cc1n(c2=O)Cc2cc3c(CN(C)C)c(O)ccc3nc2-1", "note": "+ COC1C(OC(N)=O)C(O)C(Oc2ccc3c(O)c(NC(=O)c4ccc(O)c(CC=C(C)C)c4)c(=O)oc3c2C)OC1(C)C", "values": [
      {"measurement": "pIC50", "setting": "second compound 0.0316 µM", "result": "< 7.00"},
      {"measurement": "pIC50", "setting": "second compound 0.1 µM", "result": "< 7.00"},
      {"measurement": "pIC50", "setting": "second compound 0.316 µM", "result": "< 7.00"},
      {"measurement": "pIC50", "setting": "second compound 1 µM", "result": "< 7.00"},
      {"measurement": "pIC50", "setting": "second compound 3.16 µM", "result": "< 7.00"},
      {"measurement": "pIC50", "setting": "second compound 10 µM", "result": "< 7.00"},
      {"measurement": "viability, T/C", "setting": "second compound 0.0316 µM, first compound 0.000316 µM", "result": 102, "unit": "%"},
      {"measurement": "viability, T/C", "setting": "second compound 0.0316 µM, first compound 0.001 µM", "result": 104, "unit": "%"},
      {"measurement": "viability, T/C", "setting": "second compound 0.0316 µM, first compound 0.00316 µM", "result": 110, "unit": "%"},
      {"measurement": "viability, T/C", "setting": "second compound 0.0316 µM, first compound 0.01 µM", "result": 103, "unit": "%"},
      {"measurement": "viability, T/C", "setting": "[1]", "result": 90.8, "unit": "%"},
      {"measurement": "viability, T/C", "setting": "[2]", "result": 77.6, "unit": "%"},
      {"measurement": "viability, T/C", "setting": "second compound 0.1 µM, first compound 0.000316 µM", "result": 111, "unit": "%"},
      {"measurement": "viability, T/C", "setting": "second compound 0.1 µM, first compound 0.001 µM", "result": 101, "unit": "%"},
      {"measurement": "viability, T/C", "setting": "second compound 0.1 µM, first compound 0.00316 µM", "result": 111, "unit": "%"},
      {"measurement": "viability, T/C", "setting": "second compound 0.1 µM, first compound 0.01 µM", "result": 103, "unit": "%"},
      {"measurement": "viability, T/C", "setting": "[3]", "result": 97.2, "unit": "%"},
      {"measurement": "viability, T/C", "setting": "[4]", "result": 68.6, "unit": "%"},
      {"measurement": "viability, T/C", "setting": "second compound 0.316 µM, first compound 0.000316 µM", "result": 96.2, "unit": "%"},
      {"measurement": "viability, T/C", "setting": "second compound 0.316 µM, first compound 0.001 µM", "result": 95, "unit": "%"},
      {"measurement": "viability, T/C", "setting": "second compound 0.316 µM, first compound 0.00316 µM", "result": 116, "unit": "%"},
      {"measurement": "viability, T/C", "setting": "second compound 0.316 µM, first compound 0.01 µM", "result": 102, "unit": "%"},
      {"measurement": "viability, T/C", "setting": "[5]", "result": 105, "unit": "%"},
      {"measurement": "viability, T/C", "setting": "[6]", "result": 58.4, "unit": "%"},
      {"measurement": "viability, T/C", "setting": "second compound 1 µM, first compound 0.000316 µM", "result": 90.8, "unit": "%"},
      {"measurement": "viability, T/C", "setting": "second compound 1 µM, first compound 0.001 µM", "result": 92.3, "unit": "%"},
      {"measurement": "viability, T/C", "setting": "second compound 1 µM, first compound 0.00316 µM", "result": 99.6, "unit": "%"},
      {"measurement": "viability, T/C", "setting": "second compound 1 µM, first compound 0.01 µM", "result": 96.3, "unit": "%"},
      {"measurement": "viability, T/C", "setting": "[7]", "result": 86, "unit": "%"},
      {"measurement": "viability, T/C", "setting": "[8]", "result": 76.8, "unit": "%"},
      {"measurement": "viability, T/C", "setting": "second compound 3.16 µM, first compound 0.000316 µM", "result": 101, "unit": "%"},
      {"measurement": "viability, T/C", "setting": "second compound 3.16 µM, first compound 0.001 µM", "result": 110, "unit": "%"},
      {"measurement": "viability, T/C", "setting": "second compound 3.16 µM, first compound 0.00316 µM", "result": 107, "unit": "%"},
      {"measurement": "viability, T/C", "setting": "second compound 3.16 µM, first compound 0.01 µM", "result": 92.6, "unit": "%"},
      {"measurement": "viability, T/C", "setting": "[9]", "result": 81.7, "unit": "%"},
      {"measurement": "viability, T/C", "setting": "[10]", "result": 55.6, "unit": "%"},
      {"measurement": "viability, T/C", "setting": "second compound 10 µM, first compound 0.000316 µM", "result": 105, "unit": "%"},
      {"measurement": "viability, T/C", "setting": "second compound 10 µM, first compound 0.001 µM", "result": 105, "unit": "%"},
      {"measurement": "viability, T/C", "setting": "second compound 10 µM, first compound 0.00316 µM", "result": 107, "unit": "%"},
      {"measurement": "viability, T/C", "setting": "second compound 10 µM, first compound 0.01 µM", "result": 98.5, "unit": "%"},
      {"measurement": "viability, T/C", "setting": "[11]", "result": 98.2, "unit": "%"},
      {"measurement": "viability, T/C", "setting": "[12]", "result": 70.2, "unit": "%"}
    ]},
    {"smiles": "O=C(Nc1ccc(O)c(NS(=O)(=O)c2ccc(F)cc2)c1)c1ccc(-c2ccccc2)cc1", "note": "+ COC1C(OC(N)=O)C(O)C(Oc2ccc3c(O)c(NC(=O)c4ccc(O)c(CC=C(C)C)c4)c(=O)oc3c2C)OC1(C)C", "values": [
      {"measurement": "pIC50", "setting": "second compound 0.0316 µM", "result": "< 5.00"},
      {"measurement": "pIC50", "setting": "second compound 0.1 µM", "result": "< 5.00"},
      {"measurement": "pIC50", "setting": "second compound 0.316 µM", "result": "< 5.00"},
      {"measurement": "pIC50", "setting": "second compound 1 µM", "result": "< 5.00"},
      {"measurement": "pIC50", "setting": "second compound 3.16 µM", "result": "< 5.00"},
      {"measurement": "pIC50", "setting": "second compound 10 µM", "result": "< 5.00"},
      {"measurement": "viability, T/C", "setting": "[1]", "result": 98.4, "unit": "%"},
      {"measurement": "viability, T/C", "setting": "[2]", "result": 109, "unit": "%"},
      {"measurement": "viability, T/C", "setting": "second compound 0.0316 µM, first compound 0.316 µM", "result": 104, "unit": "%"},
      {"measurement": "viability, T/C", "setting": "second compound 0.0316 µM, first compound 1 µM", "result": 103, "unit": "%"},
      {"measurement": "viability, T/C", "setting": "second compound 0.0316 µM, first compound 3.16 µM", "result": 102, "unit": "%"},
      {"measurement": "viability, T/C", "setting": "second compound 0.0316 µM, first compound 10 µM", "result": 97.3, "unit": "%"},
      {"measurement": "viability, T/C", "setting": "[3]", "result": 112, "unit": "%"},
      {"measurement": "viability, T/C", "setting": "[4]", "result": 94.4, "unit": "%"},
      {"measurement": "viability, T/C", "setting": "second compound 0.1 µM, first compound 0.316 µM", "result": 97, "unit": "%"},
      {"measurement": "viability, T/C", "setting": "second compound 0.1 µM, first compound 1 µM", "result": 88.8, "unit": "%"},
      {"measurement": "viability, T/C", "setting": "second compound 0.1 µM, first compound 3.16 µM", "result": 96, "unit": "%"},
      {"measurement": "viability, T/C", "setting": "second compound 0.1 µM, first compound 10 µM", "result": 95.1, "unit": "%"},
      {"measurement": "viability, T/C", "setting": "[5]", "result": 108, "unit": "%"},
      {"measurement": "viability, T/C", "setting": "[6]", "result": 102, "unit": "%"},
      {"measurement": "viability, T/C", "setting": "second compound 0.316 µM, first compound 0.316 µM", "result": 105, "unit": "%"},
      {"measurement": "viability, T/C", "setting": "second compound 0.316 µM, first compound 1 µM", "result": 96, "unit": "%"},
      {"measurement": "viability, T/C", "setting": "second compound 0.316 µM, first compound 3.16 µM", "result": 102, "unit": "%"},
      {"measurement": "viability, T/C", "setting": "second compound 0.316 µM, first compound 10 µM", "result": 97.3, "unit": "%"},
      {"measurement": "viability, T/C", "setting": "[7]", "result": 98.3, "unit": "%"},
      {"measurement": "viability, T/C", "setting": "[8]", "result": 98.7, "unit": "%"},
      {"measurement": "viability, T/C", "setting": "second compound 1 µM, first compound 0.316 µM", "result": 86, "unit": "%"},
      {"measurement": "viability, T/C", "setting": "second compound 1 µM, first compound 1 µM", "result": 94, "unit": "%"},
      {"measurement": "viability, T/C", "setting": "second compound 1 µM, first compound 3.16 µM", "result": 93.9, "unit": "%"},
      {"measurement": "viability, T/C", "setting": "second compound 1 µM, first compound 10 µM", "result": 99.3, "unit": "%"},
      {"measurement": "viability, T/C", "setting": "[9]", "result": 97.5, "unit": "%"},
      {"measurement": "viability, T/C", "setting": "[10]", "result": 93.2, "unit": "%"},
      {"measurement": "viability, T/C", "setting": "second compound 3.16 µM, first compound 0.316 µM", "result": 91.8, "unit": "%"},
      {"measurement": "viability, T/C", "setting": "second compound 3.16 µM, first compound 1 µM", "result": 90.2, "unit": "%"},
      {"measurement": "viability, T/C", "setting": "second compound 3.16 µM, first compound 3.16 µM", "result": 97.5, "unit": "%"},
      {"measurement": "viability, T/C", "setting": "second compound 3.16 µM, first compound 10 µM", "result": 98.8, "unit": "%"},
      {"measurement": "viability, T/C", "setting": "[11]", "result": 93.6, "unit": "%"},
      {"measurement": "viability, T/C", "setting": "[12]", "result": 95.7, "unit": "%"},
      {"measurement": "viability, T/C", "setting": "second compound 10 µM, first compound 0.316 µM", "result": 109, "unit": "%"},
      {"measurement": "viability, T/C", "setting": "second compound 10 µM, first compound 1 µM", "result": 91.5, "unit": "%"},
      {"measurement": "viability, T/C", "setting": "second compound 10 µM, first compound 3.16 µM", "result": 102, "unit": "%"},
      {"measurement": "viability, T/C", "setting": "second compound 10 µM, first compound 10 µM", "result": 91.5, "unit": "%"}
    ]}
  ]
}
